Data set [1] is described as follows: Propylene polymerization (PP) in small-scale autoclave reactors: yield, quench time, catalyst activity. The source says: Solutions of the pre-catalysts were made using toluene (ExxonMobil Chemical—anhydrous, stored under N2) (98%) or isohexane (ExxonMobil Chemical—polymerization grade, and purified as described below). Pre-catalyst solutions were typically 0.25 mmol/L.
Solvents, polymerization grade toluene and/or isohexanes were supplied by ExxonMobil Chemical Co. and are purified by passing through a series of columns: two 500 cc Oxyclear cylinders in series from Labclear (Oakland, Calif), followed by two 500 cc columns in series packed with dried […] (8-12 mesh; Aldrich Chemical Company), and two 500 cc columns in series packed with dried 5 Å mole sieves (8-12 mesh; Aldrich Chemical Company).
Polymerization grade propylene (C3) was used and further purified by passing it through a series of columns: 2250 cc Oxiclear cylinder from Labclear followed by a 2250 cc column packed with 3 Å mole sieves (8-12 mesh; Aldrich Chemical Company), then two 500 cc columns in series packed with 5 Å mole sieves (8-12 mesh; Aldrich Chemical Company), then a 500 cc column packed with Selexsorb CD (BASF), and finally a 500 cc column packed with Selexsorb COS (BASF).
Activation of the pre-catalysts was either by dimethylanilinium tetrakisperfluorophenylborate (Boulder Scientific or Albemarle Corp; Act ID=A) or is (hydrogenated tallow alkyl)methylammonium tetrakis(pentafluorophenyl)borate supplied as a 10 wt % solution in methylcyclohexane (Boulder Scientific; Act ID=B). Activators were typically used as a 0.25 mmol/L solution in toluene or isohexane.
Tri-n-octylaluminum (TnOAl or TNOA, Neat, AkzoNobel) was also used as a scavenger prior to introduction of the activator and pre-catalyst into the reactor. TNOA was typically used as a 5 mmol/L solution in toluene or isohexane.
Polymerizations were conducted in an inert atmosphere (N2) drybox using autoclaves equipped with an external heater for temperature control, glass inserts (internal volume of reactor=23.5 mL for C2 and C2/C8; 22.5 mL for C3 runs), septum inlets, regulated supply of nitrogen, ethylene and propylene, and equipped with disposable PEEK mechanical stirrers (800 RPM). The autoclaves were prepared by purging with dry nitrogen at 110° C. or 115° C. for 5 hours and then at 25° C. for 5 hours.
The reactor was prepared as described above, then heated to 40° C., and then purged with propylene gas at atmospheric pressure. Toluene or isohexanes, liquid propylene (1.0 mL) and scavenger (TNOA, 0.5 μmol) were added via syringe. The reactor was then brought to process temperature (70° C. or 100° C.) while stirring at 800 RPM. The activator solution, followed by the pre-catalyst solution, were injected via syringe to the reactor at process conditions. Reactor temperature was monitored and typically maintained within +/−1° C. Polymerizations were halted by addition of approximately 50 psi compressed dry air gas mixture to the autoclaves for approximately 30 seconds. The polymerizations were quenched based on a predetermined pressure loss (maximum quench value) or for a maximum of 30 minutes. The reactors were cooled and vented. The polymers were isolated after the solvent was removed in-vacuo. The actual quench time (s) is reported as quench time (s). Yields reported include total weight of polymer and residual catalyst. Catalyst activity is reported as grams of polymer per mmol transition metal compound per hour of reaction time (g/mmol·hr).
Polymerization results are collected in Tables 2 below. “Ex #” stands for example number. Example numbers starting with a “C” are comparative examples. “Cat ID” identifies the pre-catalyst used in the experiment. Corresponding numbers identifying the pre-catalyst (also referred to as pre-catalyst, catalyst, complex or compound) are located in the synthetic experimental section. T(° C.) is the polymerization temperature which was typically maintained within +/−1° C. “Yield” is polymer yield, and is not corrected for catalyst residue. […]

Data set [2] can be described thus: Rapid GPC of polymers (Mn, Mw, Mz, PDI). The format is physicochemical. The arrangement: Mn / Mw / Mz: unit not given here. As to the method:
For analytical testing, polymer sample solutions were prepared by dissolving polymer in 1,2,4-trichlorobenzene (TCB, 99+% purity from Sigma-Aldrich) containing 2,6-di-tert-butyl-4-methylphenol (BHT, 99% from Aldrich) at 165° C. in a shaker oven for approximately 3 hours. The typical concentration of polymer in solution was between 0.1 to 0.9 mg/mL with a BHT concentration of 1.25 mg BHT/mL of TCB. Samples were cooled to 135° C. for testing.
High temperature size exclusion chromatography was performed using an automated “Rapid GPC” system as described in U.S. Pat. Nos. 6,491,816; 6,491,823; 6,475,391; 6,461,515; 6,436,292; 6,406,632; 6,175,409; 6,454,947; 6,260,407; and 6,294,388; each of which is incorporated herein by reference. Molecular weights (weight average molecular weight (Mw), number average molecular weight (Mn) and z average molecular weight (Mz)) and molecular weight distribution (MWD=Mw/Mn), which is also sometimes referred to as the polydispersity (PDI) of the polymer, were measured by Gel Permeation Chromatography using a Symyx Technology GPC equipped with evaporative light scattering detector (ELSD) and calibrated using polystyrene standards (Polymer Laboratories: Polystyrene Calibration Kit S-M-10: Mp (peak Mw) between 5,000 and 3,390,000). Alternatively, samples were measured by Gel Permeation Chromatography using a Symyx Technology GPC equipped with dual wavelength infrared detector and calibrated using polystyrene standards (Polymer Laboratories: Polystyrene Calibration Kit S-M-10: Mp (peak Mw) between 580 and 3,039,000). […] No column spreading corrections were employed. Numerical analyses were performed using Epoch® software available from Symyx Technologies or Automation Studio software available from Freeslate. The molecular weights obtained are relative to linear polystyrene standards. Molecular weight data is reported in Table 2 under the headings Mn, Mw, Mz and PDI as defined above.

A short description of data set [3]: DSC melting point of polymers (TA-Q100). The format is physicochemical. As to the method:
Differential Scanning Calorimetry (DSC) measurements were performed on a TA-Q100 instrument to determine the melting point of the polymers. Samples were pre-annealed at 220° C. for 15 minutes and then allowed to cool to room temperature overnight. The samples were then heated to 220° C. at a rate of 100° C./minute and then cooled at a rate of 50° C./minute. Melting points were collected during the heating period. The results are reported in the Table 2 under the heading, Tm (° C.).

Setting [4] is: polypropylene made with activator A at 70° C.
The mark [5] stands for this setting: polypropylene made with activator A at 100° C.
The mark [6] stands for this setting: polypropylene made with activator B at 70° C.
[7] abbreviates: polypropylene made with activator B at 100° C.
The mark [8] stands for this setting: polymer made with activator A, T 70 ° C.
The mark [9] stands for this setting: polymer made with activator A, T 100 ° C.
Where [10] appears, read: polymer made with activator B, T 70 ° C.
Where [11] appears, read: polymer made with activator B, T 100 ° C.

Where “and” joins values, the source holds several entries; their conditions need not be identical. Equal values may be shown once.

On to `CC(C)(C)c1cc2c(c(C34CC5CC(CC(C5)C3)C4)c1)[O][Zr-]1([CH3])([CH3])[O]c3c(cc(C(C)(C)C)cc3C34CC5CC(CC(C5)C3)C4)-c3ccccc3-c3cccc([n+]31)-c1ccccc1-2` [Complex 2], for which the Activity in data set [1] (activator B, T 70° C.) is 2,069,268 g P/mmol cat • hr and 4,201,200 g P/mmol cat • hr and 3,074,182 g P/mmol cat • hr; in data set [1] (activator B, T 100° C.), 2,345,000 g P/mmol cat • hr and 2,682,545 g P/mmol cat • hr and 2,225,032 g P/mmol cat • hr. Also, the Mn in data set [2] (setting [4]) was 51,771 and 73,251 and 79,137; in data set [2] (setting [6]) it was 142,243 and 146,842 and 153,727; in data set [2] (setting [7]) it was 63,491 and 54,833 and 47,288. The Mw in data set [2] (setting [4]) is 409,655 and 422,884 and 427,915; in data set [2] (setting [5]), 157,755 and 118,735 and 149,968; in data set [2] (setting [6]), 528,329 and 583,343 and 515,347; in data set [2] (setting [7]), 180,083 and 161,679 and 169,722. Further, the Mz in data set [2] (setting [4]) is 1,643,708 and 1,794,768 and 1,704,507; in data set [2] (setting [5]), 608,816 and 547,511 and 649,731; in data set [2] (setting [6]) it was 1,786,121 and 2,112,818 and 1,774,716; in data set [2] (setting [7]) it was 621,548 and 531,840 and 733,298. Also, the PDI is 7.91 and 5.77 and 5.41 in data set [2] (polypropylene made with activator A at 70° C., Mw/Mn); 3.82 and 5.79 and 4.78 in data set [2] (polypropylene made with activator A at 100° C., Mw/Mn); 3.71 and 3.97 and 3.35 in data set [2] (polypropylene made with activator B at 70° C., Mw/Mn); 2.84 and 2.95 and 3.59 in data set [2] (polypropylene made with activator B at 100° C., Mw/Mn). Also, the Tm is 147.1 °C and 148.3 °C in data set [3] (setting [4]); 147.6 °C and 145.6 °C and 146.6 °C in data set [3] (setting [5]); 148.8 °C and 149.3 °C and 148.6 °C in data set [3] (setting [6]); 148.0 °C and 147.3 °C in data set [3] (setting [7]).
Regarding `Cc1cc2[n+]3c(c1)-c1ccccc1-c1cc(C(C)(C)C)cc(C45CC6CC(CC(C6)C4)C5)c1[O][Zr-]3([CH3])([CH3])[O]c1c(cc(C(C)(C)C)cc1C13CC4CC(CC(C4)C1)C3)-c1ccccc1-2` [Complex 3], the Activity was 1,623,360 g P/mmol cat • hr and 2,345,333 g P/mmol cat • hr in data set [1] (activator A, T 70° C.); 1,030,400 g P/mmol cat • hr and 1,074,880 g P/mmol cat • hr and 1,034,182 g P/mmol cat • hr in data set [1] (activator B, T 70° C.); 844,235 g P/mmol cat • hr and 476,276 g P/mmol cat • hr and 766,154 g P/mmol cat • hr in data set [1] (activator B, T 100° C.). Further, the Mn is 151,894 and 189,341 in data set [2] (setting [8]); 97,418 and 70,184 and 116,079 in data set [2] (setting [9]); 251,087 and 247,428 and 294,324 in data set [2] (setting [10]); 136,672 and 115,932 and 136,724 in data set [2] (setting [11]). In addition, the Mw in data set [2] (setting [8]) was 555,461 and 618,660; in data set [2] (setting [9]), 211,821 and 182,436 and 245,630; in data set [2] (setting [10]), 611,739 and 605,320 and 723,438; in data set [2] (setting [11]), 263,279 and 217,696 and 285,817. The Mz in data set [2] (setting [8]) was 2,204,591 and 1,998,977; in data set [2] (setting [9]) it was 590,904 and 640,309 and 691,819; in data set [2] (setting [10]), 1,641,465 and 1,654,930 and 2,228,894; in data set [2] (setting [11]) it was 693,703 and 504,146 and 859,182. Also, the PDI in data set [2] (setting [8]) was 3.66 and 3.27; in data set [2] (setting [9]) it was 2.17 and 2.60 and 2.12; in data set [2] (setting [10]), 2.44 and 2.45 and 2.46; in data set [2] (setting [11]), 1.93 and 1.88 and 2.09. Also, the Tm in data set [3] (setting [8]) was 150.4 °C and 150.9 °C; in data set [3] (setting [9]), 149.4 °C and 148.1 °C and 150.1 °C; in data set [3] (setting [10]), 150.5 °C and 150.9 °C; in data set [3] (setting [11]), 148.9 °C and 149.8 °C.

For the origin of these results see patent US20250277066A1, “Substituted Pyridine-2,6-Bis(Phenylenephenolate) Complexes with Enhanced Solubility that are Useful as Catalyst Components for Olefin Polymerization” (ExxonMobil Chemical Patents Inc., priority 2022, published 2025).
